Entries after “also recorded” stand apart in the source; their conditions may differ.
Columns and labels:
Escherichia coli = experiment: Bacterial growth assay and MIC determination, E. coli; assay type: cell-based; details: Escherichia coli, serum −, read-out: MIC
Experimental: Strains of Escherichia coli, Staphylococcus aureus and Staphylococcus epidermidis, were grown overnight in 1% Bacto tryptone medium (BD, Sparks, Md.). Streptococcus pyogenes was grown overnight in Bacto Todd Hewitt Broth medium (BD, Sparks, Md.). Cultures were then diluted 1:1,000 in fresh assay medium supplemented with or without 20% fetal bovine serum (FBS; HyClone, Celbio, Logan, Utah) and added to 96-well sterile enzyme-linked immunosorbent assay (ELISA) plates (100 μl per well). The compounds to be tested were diluted in the medium without serum and added to the bacteria (100 μl per well). Plates were incubated at 37° C., and bacterial growth was monitored over time by reading the optical density at 490 nm using a microplate reader (model 450; Bio-Rad Laboratories Inc., Hercules, Calif.). Streptococcus pneumoniae strains were grown to mid-log phase (OD620 of 0.3) and stored in 15% glycerol at […] till further use. Minimal inhibitory concentration (MIC) of antibiotics was determined according to standard procedures. Bacteria were diluted 10-fold in Mueller-Hinton medium (BD, Sparks, Md.) and added to 96-well sterile ELISA plates (150 μl per well). The compounds to be tested were diluted in the medium without serum and added to the bacteria (150 μl per well). Plates were incubated overnight at 37° C. in 5% CO2. The MIC was defined as the lowest concentration of compound at which no growth was visible with the naked eye.

[1] = Pharmacokinetic study in rats; assay type: in vivo; details: rat, blood, 50 mg/kg in saline, oral administration
Experimental: To address the question if increased stability would also lead to improved bioavailability in vivo, a pharmacokinetic study was performed. Briefly, the pantothenamides N5-Pan (an antibacterial compound) and CXP18.3-002 (an antimalarial compound), and their corresponding inverted amides CXP18.6-013 and CXP18.6-006 were administered to rats at 50 mg/kg dissolved in saline. Blood samples were collected from 3 rats before the experiment and at 0.25, 0.5, 1, 2, 4, 6, 8, 12 and 24 h. The concentrations of the compounds were analyzed by LC-MS/MS (AB Sciex API-4000 system). Data were analyzed by the Non-compartmental analysis tool of Phoenix WinNonlin (Version 6.3).

[2] = tested on: fetal bovine serum as a source of pantetheinase activity; experiment: Stability in vitro in fetal bovine serum (LC-MS); assay type: in vitro ADME
Experimental: FIG. 1: Inverted amides are stable in serum. The stability of pantothenamide CXP18.3-002 (A-C) and its corresponding inverted amide CXP18.6-006 (D-F) was measured using LC-MS analysis after overnight incubation in buffer (A and D), buffer with 10% fetal bovine serum (B and E) and buffer with 10% FBS supplemented with the vanin inhibitor RR6 (C-F). Fetal bovine serum contains a high level of vanin (pantetheinase) activity. Both compounds are stable after incubation in buffer alone (figure A and D). The small peaks in the amine channels, with molecular masses of 163 (A) en 191 (D), are either the result of disruption of compound during ionization (CXP18.3-002-sample) or background from the buffer (CXP18.6-006-sample). […] Explanation of masses and compounds: CXP18.3-002, exact mass 322.189, found at mass 305 (—H2O (18)+H^+(1)). Amine from CXP18.3-002, exact mass 121.089, found at 163 (+ACN(41) +H^+(1)). Pantothenic acid, exact mass 219.111, found at mass 220 (+H^+(1)). RR6, exact mass 293.163, found at 294 (+H^+(1)). CXP18.6-006, exact mass 322.189, found at mass 305 (—H2O (18) +H^+(1)). Amine from CXP18.6-006, exact mass 150.068, found at 151 (+H^+(1)).
Conventional pantothenamides are hydrolysed by pantetheinases in body fluids as shown before (Jansen et al 2013) thereby losing their antimicrobial activity (Jansen et al 2013, Spry et al 2013, PLoS One 8:e54974). Bioisosteric pantothenamides retained their in vitro antimicrobial activity in the presence of serum, as will be shown in the next examples. To examine the stability of analogues in vitro, CXP18.3-002 and its bioisostere CXP18.6-006 were incubated for 16 h at room temperature in PBS with 10% fetal bovine serum as a source of pantetheinase activity. Samples were taken and analyzed by LC-MS using a Shimadzu LC10ATvp HPLC coupled to a Shimadzu LCMS2010 A mass spectrometer. […] The hydrolysis of the pantothenamides by fetal bovine serum could be inhibited by the addition of RR6, a potent inhibitor of pantetheinase activity, as described before (Jansen en al 2013).

SMILES	MIC (Escherichia coli) [µg/mL]	AUC(0-inf) [1] [ng·h/mL]	Cmax [1] [ng/mL]	Tmax [1] [h]	half-life ([1]; elimination phase) [h]	stability in buffer with 10% fetal bovine serum ([2]; PBS with 10% FBS, 16 h (overnight), room temperature)	stability after overnight incubation in buffer ([2]; buffer alone)	stability in buffer with 10% FBS supplemented with the vanin inhibitor RR6 ([2]; overnight)
CC(C)(CO)[C@@H](O)C(=O)NCCNC(=O)CCc1ccccc1F [CXP18.6-017]	> 256							
CC(C)(CO)[C@@H](O)C(=O)NCCNC(=O)CCc1ccccc1 [CXP18.6-006]		6620	3360	0.33	3.6	remains intact; also recorded: No appreciable degradation	stable	had no effect
